Consider two compounds from publication PMC4700278, “Molecular and Biochemical Analysis of the Estrogenic and Proliferative Properties of Vitamin E Compounds” (Frontiers in Oncology, 2016).

One experiment concerns the target T1, HMG-CoA reductase (HMGR) (Homo sapiens, UniProt P04035).
T1 construct: endogenous in cells; host or cells: MCF-7, T47D, MDA-MB-231 (microsomal fraction)
T1 sequence (P04035 1-888): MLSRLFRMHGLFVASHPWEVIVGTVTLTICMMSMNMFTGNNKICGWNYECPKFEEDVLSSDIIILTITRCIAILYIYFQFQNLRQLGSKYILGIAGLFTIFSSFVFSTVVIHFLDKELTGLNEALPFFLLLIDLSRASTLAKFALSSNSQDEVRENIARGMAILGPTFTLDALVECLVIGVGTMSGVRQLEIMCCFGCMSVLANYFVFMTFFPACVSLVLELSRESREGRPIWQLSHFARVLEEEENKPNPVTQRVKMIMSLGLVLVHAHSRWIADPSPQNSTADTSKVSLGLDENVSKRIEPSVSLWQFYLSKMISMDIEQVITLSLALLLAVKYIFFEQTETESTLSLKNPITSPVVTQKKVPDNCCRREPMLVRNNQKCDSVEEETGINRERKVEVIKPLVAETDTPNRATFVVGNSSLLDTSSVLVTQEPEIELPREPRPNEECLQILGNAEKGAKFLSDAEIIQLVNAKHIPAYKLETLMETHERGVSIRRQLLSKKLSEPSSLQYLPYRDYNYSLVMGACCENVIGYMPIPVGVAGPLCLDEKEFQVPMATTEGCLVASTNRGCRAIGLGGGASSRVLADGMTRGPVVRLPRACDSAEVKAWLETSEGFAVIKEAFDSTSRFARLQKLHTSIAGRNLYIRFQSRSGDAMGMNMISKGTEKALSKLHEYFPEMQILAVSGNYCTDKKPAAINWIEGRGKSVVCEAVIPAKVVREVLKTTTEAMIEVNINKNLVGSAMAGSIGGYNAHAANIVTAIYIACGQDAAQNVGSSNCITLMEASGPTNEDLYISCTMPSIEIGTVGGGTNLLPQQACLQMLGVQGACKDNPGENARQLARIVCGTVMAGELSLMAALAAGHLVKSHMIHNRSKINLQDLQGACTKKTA
Description: HMG-CoA reductase activity in microsomal fraction of treated cells. Type of experiment: cell-based. Particulars: MCF-7, T47D and MDA-MB-231 cells treated with 500 μM; compared to solvent vehicle-treated cells. The procedure:
Figure 4 Effect of tocol on ER(+) and ER(−) BC cell proliferation and HMG-CoA reductase activity. (A) Effect of δ-tocols on estrogen and non-estrogen-regulated growth of MCF-7, T47D, and MDA-MB-231 cells. […] Cells were also treated with 30 μM lovastatin (Lova) in the presence or absence of 5 mM M, as described in Section “Materials and Methods.” Values are shown as means and vertical bars represent SEM. The data were analyzed by two-way ANOVA, followed by Bonferroni post hoc test. ***P < 0.001, **P < 0.01, and *P < 0.05 in comparison with control or bare-linked specific control. Ns: not significant. (B) Effect of δ-TT on hydroxymethylglutaryl coenzyme A reductase (HMGR) activity in MCF-7, T47D, and MDA-MB-231 cells. […] Data shown are the mean values ± SEM from three independent experiments performed in triplicate.

Experiment [1] addresses T2, ERβ (Homo sapiens, UniProt Q92731). Particulars: HELN-ERβ cells; 500 μM. The text has this: MELN cells were established by transfecting ER(+) MCF-7 cells with the ERE-β-globin-tk-Luc-SV-Neo plasmid ([36]). HELN cells were generated by transfection of ER(−) HeLa cells with this plasmid. The HELN-ERα, HELN-ERβ, HELN-ΔAB-ERα, and HELN-ΔAB-ERβ cell lines then underwent a second transfection with the corresponding pSG5-puro plasmids (pSG5-ERα-puro, pSG5-ERβ-puro, pSG5-ΔAB-ERα-puro, and pSG5-ΔAB-ERβ-puro, respectively) and expressed wild-type or mutated ERα or ERβ ([39], [40]). […] Luciferase activity was measured using the luciferase assay reagent (Promega), according to the manufacturer’s instructions. Protein concentrations were measured using the Bradford technique ([41]) to normalize the luciferase activity data. For each condition, average luciferase activity was calculated from the data of three independent wells.
Figure 3 Measurement of estrogenicity of tocols in vitro. […] MCF-7 extracts were analyzed for the presence of ERα by western blotting using GAPDH as a control. […] The ratio of ERα to GAPDH levels in each experiment was determined densitometrically and normalized to control value (taken to be 1). […] The relative expression of TGFα, PR, and Ps2 (TFF1) after 16 h was analyzed by quantitative RT-PCR. […]

Experiment [2] deals with T2, ERβ. Description: Estrogen receptor-binding assay, competition with [3H]-17β-estradiol. On the set-up: expressed in transfected cells; host or cells: Cos-7. Particulars: extracts of cos-7 cells expressing human ERβ; 2 nM [3H]-E2; tocols 1 μM to 1 mM; N.M. = not measurable.

T2 sequence (Q92731 whole entry): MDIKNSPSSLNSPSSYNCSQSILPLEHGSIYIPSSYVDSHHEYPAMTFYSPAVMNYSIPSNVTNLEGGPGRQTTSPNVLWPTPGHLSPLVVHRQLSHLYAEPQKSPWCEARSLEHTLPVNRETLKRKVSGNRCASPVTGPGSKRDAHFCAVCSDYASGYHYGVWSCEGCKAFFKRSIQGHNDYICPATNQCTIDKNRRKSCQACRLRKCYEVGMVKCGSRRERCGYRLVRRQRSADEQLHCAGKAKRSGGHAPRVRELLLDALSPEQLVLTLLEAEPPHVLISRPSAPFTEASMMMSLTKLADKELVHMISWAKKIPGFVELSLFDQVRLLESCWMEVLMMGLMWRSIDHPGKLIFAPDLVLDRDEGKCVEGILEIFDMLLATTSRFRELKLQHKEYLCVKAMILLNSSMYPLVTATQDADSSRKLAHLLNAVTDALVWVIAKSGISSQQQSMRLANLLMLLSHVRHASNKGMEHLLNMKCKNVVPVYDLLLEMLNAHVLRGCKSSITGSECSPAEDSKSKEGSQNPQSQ

Consider `Cc1cc(O)cc2c1OC(C)(CCCC(C)CCCC(C)CCCC(C)C)CC2` (stereo not shown) [δ-TP, δ-tocopherol], for which the “effect on HMGR activity” value on HMG-CoA reductase (HMGR) was “not”.

On to `CC(C)=CCC/C(C)=C/CC/C(C)=C/CC[C@]1(C)CCc2cc(O)cc(C)c2O1` [δ-TT, δ-tocotrienol], for which the “ER-dependent luciferase activity through ERβ” value on ERβ [1] is given as “activate ER-dependent luciferase activity”. The “effect on HMGR activity” value on HMG-CoA reductase (HMGR) is recorded as “inhibition of HMGR activity”. Moreover, the IC50 on ERβ [2] turned out to be 91 ± 7 µM.

One may read the IC50 as the concentration needed to halve the response being measured.
